Data taken from patent publication US20260193227A1, “THERAPEUTIC COMPOUNDS AND METHODS” (UNIVERSITY OF IOWA RESEARCH FOUNDATION, priority 2022, published 2026).
Entries after “also recorded” stand apart in the source; their conditions may differ.

Tested on: EUFA423F cells
Assay: CellTiter-Glo cell viability, BRCA2-mutated cells
Assay type: cell-based, human
Conditions: for toxicity towards EUFA423 cells: BRCA2-mutated cells, yes/no; for toxicity / selective toxicity towards BRCA2-mutated cells in cell viability assays: EUFA423F versus EUFA423F HA
Excerpt: Cell lines: EUFA423F cells that are derived from a Fanconi Anemia patient with complementation group D1 and have biallelic mutations (7691 insAT and 9900 insA) in BRCA2 that result in two different truncated forms of BRCA2 (Howlett N G, et al., Science (New York, NY). 2002; 297(5581):606-9) and its counterpart complemented with expression vector for full-length BRCA2 (EUFA HA) were a generous gift from Dr. Simon Powell, Molecular Biology Program, Radiation Oncology, Sloan-Kettering Cancer Center, New York, NY).
Cell proliferation assay: Selective toxicity of the compounds towards human BRCA2 deficient cells was tested in EUFA423F and its complement EUFA423F HA using CellTiter-Glo® Luminescent Cell Viability Assay (Promega, Madison, WI). The cell lines were maintained in DMEM (Gibco/ThermoFisher Scientific, Waltham, MA) supplemented with 10% FBS and 10 mM HEPES (Gibco/ThermoFisher Scientific, Waltham, MA). EUFA423F HA cells were routinely supplemented with G418 in order to maintain the BRCA2 expression plasmid. Both cell lines were seeded in sterile tissue culture treated, white opaque 384-well plates (Perkin Elmer Inc., Waltham, MA) 3000 cells/well for EUFA423F HA and 2500 cells/well for EUFA423F) and allowed to adhere for 24 hours. Compounds dissolved in DMSO were added in the concentration range of 0-100 μM. Controls were treated with equivalent DMSO volumes. The cells were treated with compounds for 72 hours (to ensure that all cells experienced at least two S-phases). Post treatment, the cells were washed, treated with the CellTiter-Glo® reagent was added and the plate was analyzed as using a Gen5 (ver2.1) luminosity plate reader. The luminescence that reports on ATP generation by the surviving cells was normalized for the DMSO treated control as 100%. The normalized luminescence (average±standard deviation for at least three independent measurements obtained with different cell passages) was plotted in GraphPad Prism as a function of compound concentration. Clonogenic Survival: EUFA423F and EUFA423F HA cells were seeded in a 96 well plate. Compounds dissolved in DMSO were added to final concentrations of 0, 50, and 100 μM for the compound of Example 8 and the compound of Example 1, and 0, 5, and 10 μM for the compounds of Examples 2-7. The cells were treated with compounds for 72 hours. Post treatment, cell cultures were harvested by collecting all non-adherent cells in the well, trypsinization of all adherent cells, combining, pelleting and then resuspending in fresh media. Cultures treated with DMSO only were subsequently counted using a hemocytometer and plated at a density of 2000, 200 and 20 cells per well in 6-well culture plates, equal volumes of cultures were plated each inhibitor concentration. Each treatment and cell density conditions for both cell lines were plated in triplicate. After expanding the colonies for a period of 8 days, cultures were fixed with a solution of 70% ethanol and crystal violet for clonogenic survival analysis. Pictures of individual wells were taken using GelCount (Version 1.3.0.4) by Oxford Optronix (Abingdon UK). A colony had to contain at least 50 cells to be counted. The number of surviving colonies following treatment are presented as a percentage of number of colonies in the experiment where the cells were treated with DMSO only.

Structure (SMILES)	toxicity towards EUFA423 cells	toxicity / selective toxicity towards BRCA2-mutated cells in cell viability assays (CellTiter-Glo, 72 hours, listed as Z99)	toxicity / selective toxicity towards BRCA2-mutated cells in cell viability assays (CellTiter-Glo, 72 hours, listed as Z56)	IC50 (Homo sapiens, CellTiter-Glo, 72 hours, read-out: IC50 value for the EUFA423F viability experiments) [µM]
O=C(Cn1cccc([N+](=O)[O-])c1=O)c1c[nH]c2ccccc12 [Example 1]	yes	selectively toxic; also recorded: shows toxicity towards BRCA2-mutated cells	–	–
COc1ccccc1NS(=O)(=O)c1cc(C(=O)O)ccc1C [Example 8]	yes	–	toxicity only towards BRCA2 mutant cells; also recorded: selectively toxic to BRCA2-mutated cells	32 ± 12.1
